From patent US6444668B1 (Wyeth, priority 1999, dated 2002)
Values joined by “and” are separate entries in the source; they are usually repeats but may differ in a detail not shown here. Equal entries are not always repeated. Where two headings read alike, the source gives them in different places.

Columns and labels:
T47D cells = assay: T47D cell proliferation assay (BrdU incorporation); type: cell-based; settings: agonist mode, individual studies, read-out: Estimated EC50, BrdU incorporation
Method: 3. T47D Cell Proliferation Assay
The objective of this assay is the determination of progestational and antiprogestational potency by using a cell proliferation assay in T47D cells. A compound's effect on DNA synthesis in T47D cells is measured.
DMEM:F12 (1:1) (GIBCO, BRL) supplemented with 10% (v/v) fetal bovine serum (not heat-inactivated), 100U/ml penicillin, […] streptomycin, and 2 mM GlutaMax (GIBCO, BRL).
Minimum Essential Medium (MEM) (#51200-038GIBCO, BRL) phenol red-free supplemented with 0.5% charcoal stripped fetal bovine serum, 100U/ml penicillin, 200 mg/ml streptomycin, and 2 mM GlutaMax (GIBCO, BRL).
Stock T47 D cells are maintained in growth medium. For BrdU incorporation assay, cells are plated in 96-well plates (Falcon, Becton Dickinson Labware) at 10,000 cells/well in growth medium. […]
At the end of BrdU labeling, the medium is removed and BrdU incorporation is measured using a cell proliferation ELISA kit (#RPN 250, Amersham Life Science) according to manufacturer's instructions. […] Then 25 μl of 1 M sulfuric acid is added to each well to stop color reaction and optical density is read in a plate reader at 450 nm within 5 min.
Square root-transformed data are used for analysis of variance and nonlinear dose response curve fitting for both agonist and antagonist modes. […] EC50 or IC50 values are calculated from the retransformed values. […]

[1] = test system: rat uterine decidualization; assay: Rat decidualization assay; type: in vivo; settings: for Decidualization IC50: half-maximal decrease in EC50 progesterone induced decidual response; for Estimated EC50 for uterine wet weight (decidual response) / Estimated average EC50 (decidual response): s.c.; for Estimated EC50 for uterine wet weight (decidual response): individual studies; for Estimated average EC50 (decidual response): average of dose-response curves
Method: 1. Rat Decidualization Assay
b. Animals (RACUC Protocol #5002)
The animals are treated once daily for seven days.
Uteri are removed and trimmed of fat.
Body weight: Mean total animal body weight (default-kg)
Decidual response: [(D-C)/C]x100%

[2] = read-out: Decidualization, percentage inhibition at the dose specified

SMILES: C[C@H](O)C(=O)[C@@]1(C)CC[C@H]2[C@@H]3CCC4=CC(=O)CCC4=C3CC[C@@]21C [Trimegestone]
- EC50 (T47D cells): 17 pM and 14 pM and 19 pM

SMILES: Cc1cc(C#N)sc1-c1ccc2c(c1)C1(CCCCC1)OC(=O)N2 [Compound 10, 5-(1,2-Dihydro-2-oxospiro[4H-3,1-benzoxazine-4,1-cyclohexan]-6-yl)-4-methyl-2-thiophenecabonitrile]
- Decidualization, percentage inhibition at the dose specified ([1]; dose 10 mg/kg): 50% @ 1O

SMILES: CC1(C)OC(=O)Nc2ccc(-c3cccc(Br)c3)cc21 [Compound 13]
- Decidualization IC50 [1]: 3 mg/kg
- melting point: 174 to 175 °C

SMILES: CC1(C)OC(=O)Nc2ccc(-c3cc(Cl)cc(Cl)c3)cc21 [Compound 4, 6-(3,5dichloro-phenyl)-4,4-dimethyl-1,4-dihydrobenzo-[d][1,3]oxazin-2-one]
- inhibition at 1 mg/kg [1, 2]: 60%
- melting point: 245 to 246 °C

SMILES: N#Cc1cc(F)cc(-c2ccc3c(c2)C(C2CC2)(C2CC2)OC(=O)N3)c1 [Compound 15, 3-(4,4Dicyclopropyl-2-oxo-1,4-dihydro-2H-benzo[d][1,3]oxazin-6-yl)5-fluoro-benzonitrile]
- Decidualization IC50 [1]: 3 mg/kg
- melting point: 250 to 252 °C

SMILES: CC(=O)O[C@]1(C(C)=O)CC[C@H]2[C@@H]3C[C@H](C)C4=CC(=O)CC[C@]4(C)[C@H]3CC[C@@]21C [MPA, medroxyprogesterone acetate, reference compound]
- EC50 (T47D cells; Homo sapiens, T47D): 19 pM
- Estimated EC50 for uterine wet weight (decidual response) [1]: 0.42 mg/kg and 0.39 mg/kg (2×)

SMILES: C#C[C@]1(O)CC[C@H]2[C@@H]3CCC4=CC(=O)CC[C@@H]4[C@H]3CC[C@@]21CC [Levonorgestrel, reference compound]
- Estimated average EC50 (decidual response) [1]: 0.10 mg/kg
- Estimated EC50 for uterine wet weight (decidual response) [1]: 0.08 mg/kg and 0.12 mg/kg and 0.09 mg/kg (2×)

SMILES: CC1(C)OC(=O)Nc2ccc(-c3ccc(C#N)s3)cc21 [Compound 12, 5-(4,4-Dimethyl-2-oxo-1,4-dihydro-2H-benzo[d][1,3]oxazin-6-yl)-thiophene-2-carbonitrile]
- Decidualization IC50 [1]: 3.34 ± 0.22 mg/kg
- melting point: 264 to 266 °C

SMILES: Cc1cc(C#N)sc1-c1ccc2c(c1)C(C)(C)OC(=O)N2 [Compound 18, 5-(4. 4-Dimethyl-2-oxo-1. 4-dihydro-2H-benzo[d][1,3]oxazin-6-yl)-4-methyl-thiophene-2-carbonitrile]
- Decidualization IC50 [1]: 1.5 mg/kg

SMILES: N#Cc1ccc(-c2ccc3c(c2)C2(CCCCC2)OC(=O)N3)s1 [Compound 11, 5-(1,2-Dihydro-2-oxospiro[4H-3,1-benzoxazine-4,1-cyclohexan]-6-yl)-2-thiophenecarbonitrile]
- inhibition at 10 mg/kg ([1]; dose 10 mg/kg, read-out: Decidualization, percentage inhibition at the dose specified): 50%
- melting point: 243 to 245 °C

SMILES: CC(=O)[C@H]1CC[C@H]2[C@@H]3CCC4=CC(=O)CC[C@]4(C)[C@H]3CC[C@]12C [Progesterone, reference compound]
- Estimated average EC50 (decidual response) [1]: 5.62 mg/kg
- Estimated EC50 for uterine wet weight (decidual response) [1]: 5.50 mg/kg

SMILES: CC1(C)OC(=O)Nc2ccc(-c3cncc(Br)c3)cc21 [Compound 16, 6-(5-Bromo-pyridin-3-yl)-4,4-dimethyl-1,4-dihydro-benzo[d][1,3]oxazin-2-one]
- inhibition at 3 mg/kg [1, 2]: 50%
- melting point: 211 to 212 °C

SMILES: CC1(C)OC(=O)Nc2ccc(-c3csc(C#N)c3)cc21 [Compound 17, 4-(4.4-Dimethyl-2-oxo-1.4dihydro-2H-benzo[d][1,3]oxazin-6-yl)thiophene2-carbonitrile]
- Decidualization IC50 [1]: 2.3 ± 0.46 mg/kg

SMILES: C#C[C@]1(O)CC[C@H]2[C@@H]3CCC4=CC(=O)CC[C@@H]4[C@H]3C(=C)C[C@@]21CC [3-Ketodesogestrel, reference compound]
- Estimated average EC50 (decidual response) [1]: 0.10 mg/kg
- Estimated EC50 for uterine wet weight (decidual response) [1]: 0.10 mg/kg and 0.06 mg/kg and 0.11 mg/kg

SMILES: CC1(C)OC(=O)Nc2ccc(-c3cccc(F)c3)cc21 [Compound 3, 6-(3-Fluoro-phenyl)-4,4-dimethyl-1,4-dihydro-benzo[d][1,3]-oxazin-2-one]
- inhibition at 3 mg/kg [1, 2]: 80%
- melting point: 181 to 182 °C

SMILES: CC1(C)OC(=O)Nc2ccc(-c3cc(F)cc(Br)c3)cc21 [Compound 8, 6-(3-Bromo-5-fluorophenyl)-4,4-dimethyl-1,4-dihydrobenzo[d][1,3]oxazin-2-one]
- inhibition at 3 mg/kg [1, 2]: 50%
- melting point: 182 to 183 °C

SMILES: CC1(C)OC(=O)Nc2ccc(-c3ccc(F)c(C#N)c3)cc21 [Compound 1, 5-(4,4Dimethyl-2-oxo-1,4-dihydro-2H-benzo[d][1,3]oxazin-6-yl)-2-fluoro-benzonitrile]
- inhibition at 1 mg/kg [1, 2]: 80%

SMILES: CC1(C)OC(=O)Nc2ccc(-c3cc(F)cc(C#N)c3)cc21 [Compound 19, 3-(4,4-Dimethyl-2-oxo-1,4-dihydro-2H-benzo[d][1,3]oxazin-6-yl)-5-fluorobenzonitrile]
- Decidualization IC50 [1]: 0.35 mg/kg

SMILES: CC1(C)OC(=O)Nc2ccc(-c3ccc(F)c(Cl)c3)cc21 [Compound 20, 6-(3-Chloro-4-fluoro-phenyl)-4,4-dimethyl-1,4-dihydro-benzo[d][1,3]oxazin-2-one]
- Decidualization IC50 [1]: 1 mg/kg

SMILES: CC1(C)OC(=O)Nc2ccc(-c3cc(C#N)ccc3F)cc21 [Compound 5, 3-(4,4-Dimethyl-2-oxo-1,4-dihydro-2H-benzo[d][1,3]oxazin-6-yl)-4-fluoro-benzonitrile]
- inhibition at 1 mg/kg [1, 2]: 60%
- melting point: 229 to 230 °C

SMILES: CC1(C)OC(=O)Nc2ccc(-c3cc(F)cc(C(F)(F)F)c3)cc21 [Compound 2, 6-(3-Fluoro-5-trifluoromethyl-phenyl)-4,4-dimethyl-1,4-dihydro-benzo[d][1,3]oxazin-2-one]
- inhibition at 1 mg/kg [1, 2]: 50%
- melting point: 207 to 208 °C

SMILES: CC1(C)OC(=O)Nc2ccc(-c3cc(F)cc(Cl)c3)cc21 [Compound 14, 6-(3-Chloro-5fluoro-phenyl)-4,4dimethyl-1,4-dihydro-benzo[d][1,3]oxazin-2-one]
- inhibition at 3 mg/kg [1, 2]: 50%

SMILES: CC1(C)OC(=O)Nc2ccc(-c3cc(F)cc([N+](=O)[O-])c3)cc21 [Compound 6, 6-(3-Fluoro-5-nitro-phenyl)-4,4-dimethyl-1,4dihydro-benzo[d][1,3]oxazin-2-one]
- inhibition at 1 mg/kg [1, 2]: 50%
- melting point: 260 to 261 °C
